± gives the standard deviation of the averaged measurements.
Experiments:
Test in all cases: level (log10 ratio to DMSO vehicle control); higher = higher biomarker level / cell amount than vehicle control
[1] = compound: O=S(=O)(O)CCC(F)(F)C(F)(F)C(F)(F)C(F)(F)F [4:2 Fluorotelomer sulfonic acid]; conditions: in DMSO
Procedure: (§1)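 BioMAP Diversity Plus panel of 12 human primary cell co-culture systems (3C, 4H, LPS, SAg, BT, BF4T, BE3C, CASM3C, HDF3CGF, KF3CT, MyoF, Mphg). Compounds were added 1 h before stimulation and left for 24 h (MyoF 48 h; BT 72 h for soluble read-outs or 6 d for IgG). Biomarkers were read by ELISA, cytotoxicity by SRB, PBMC viability and proliferation by Alamar Blue. Each well value was divided by the mean of 8 DMSO control wells on the same plate and log10 transformed; duplicate blinded samples were tested at 4 concentrations.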

[2] = compound: C=CC(=O)OCC(F)(F)C(F)(F)C(F)(F)C(F)(F)COC(=O)C=C [1H,1H,6H,6H-Perfluorohexane-1,6-diol diacrylate]; conditions: 6700 nM; in DMSO
Procedure: as §1

[3] = compound: C=CC(=O)OCCC(F)(F)C(F)(F)C(F)(F)C(F)(F)C(F)(F)C(F)(F)C(F)(F)C(F)(F)F [8:2 Fluorotelomer acrylate]; conditions: in DMSO
Procedure: as §1

[4] = compound: OCCCCC(F)(F)C(F)(F)C(F)(F)C(F)(F)F [4:4 Fluorotelomer alcohol]; conditions: in DMSO
Procedure: as §1

[5] = compound: OCC(F)(F)C(F)(F)C(F)(F)C(F)(F)C(F)(F)C(F)(F)F [6:1 Fluorotelomer alcohol]; conditions: in DMSO
Procedure: as §1

[6] = compound: Cc1ccc(S(=O)(=O)OCC(F)(F)C(F)(F)C(F)(F)C(F)(F)C(F)(F)C(F)F)cc1 [1H,1H,7H-Perfluoroheptyl 4-methylbenzenesulfonate]; conditions: in DMSO
Procedure: as §1

[7] = compound: O=C(O)C(F)(F)C(F)(F)C(F)(F)C(F)(F)C(F)(F)C(F)(F)C(F)(F)F [Ammonium perfluorooctanoate]; conditions: in DMSO
Procedure: as §1

CASM3C:LDLR
level (log10) ([1]; 6700 nM): -0.0145 ± 0.012 | level (log10) ([1]; 20000 nM): 0.0015 ± 0.0021 | level (log10) ([1]; 60000 nM): -0.0035 ± 0.025 | level (log10) [2]: 0.001 ± 0.028 | level (log10) ([3]; 6700 nM): -0.008 ± 0.011 | level (log10) ([3]; 20000 nM): -0.0135 ± 0.011 | level (log10) ([3]; 60000 nM): -0.002 ± 0.0099 | level (log10) ([4]; 6700 nM): 0.016 ± 0.0042 | level (log10) ([4]; 20000 nM): 0.0175 ± 0.022 | level (log10) ([4]; 60000 nM): 0.03 ± 0.042 | level (log10) ([5]; 6700 nM): 0.0045 ± 0.016 | level (log10) ([5]; 20000 nM): 0.014 ± 0.017 | level (log10) ([5]; 60000 nM): -0.0585 ± 0.022 | level (log10) ([6]; 6700 nM): -0.0095 ± 0.0092 | level (log10) ([6]; 20000 nM): 0.007 ± 0.0099 | level (log10) ([6]; 60000 nM): 0.0285 ± 0.022 | level (log10) ([7]; 6700 nM): -0.0015 ± 0.018 | level (log10) ([7]; 20000 nM): 0 ± 0.031 | level (log10) ([7]; 60000 nM): 0.0085 ± 0.039

CASM3C:M-CSF
level (log10) ([1]; 6700 nM): -0.0265 ± 0.011 | level (log10) ([1]; 20000 nM): -0.02 ± 0.0028 | level (log10) ([1]; 60000 nM): 0.001 ± 0.03 | level (log10) [2]: -0.105 ± 0.016 | level (log10) ([3]; 6700 nM): 0.003 ± 0.0057 | level (log10) ([3]; 20000 nM): 0.0095 ± 0.032 | level (log10) ([3]; 60000 nM): 0.0185 ± 0.04 | level (log10) ([4]; 6700 nM): 0.0085 ± 0.011 | level (log10) ([4]; 20000 nM): -0.005 ± 0.024 | level (log10) ([4]; 60000 nM): 0.021 ± 0.047 | level (log10) ([5]; 6700 nM): -0.013 ± 0.0042 | level (log10) ([5]; 20000 nM): -0.013 ± 0.037 | level (log10) ([5]; 60000 nM): -0.0855 ± 0.023 | level (log10) ([6]; 6700 nM): -0.024 ± 0.0028 | level (log10) ([6]; 20000 nM): -0.0445 ± 0.013 | level (log10) ([6]; 60000 nM): 0.007 ± 0.051 | level (log10) ([7]; 6700 nM): -0.0045 ± 0.0021 | level (log10) ([7]; 20000 nM): 0.011 ± 0.028 | level (log10) ([7]; 60000 nM): 0.015 ± 0.05

CASM3C:PAI-I
level (log10) ([1]; 6700 nM): -0.002 ± 0.0014 | level (log10) ([1]; 20000 nM): -0.0015 ± 0.00071 | level (log10) ([1]; 60000 nM): -0.002 ± 0.0057 | level (log10) [2]: 0.0005 ± 0.0021 | level (log10) ([3]; 6700 nM): -0.0045 ± 0.0021 | level (log10) ([3]; 20000 nM): -0.008 ± 0.0099 | level (log10) ([3]; 60000 nM): 0.005 ± 0.017 | level (log10) ([4]; 6700 nM): 0.017 ± 0.016 | level (log10) ([4]; 20000 nM): 0.013 ± 0.023 | level (log10) ([4]; 60000 nM): 0.0085 ± 0.026 | level (log10) ([5]; 6700 nM): -0.0035 ± 0.005 | level (log10) ([5]; 20000 nM): -0.0015 ± 0.00071 | level (log10) ([5]; 60000 nM): 0.003 ± 0.0085 | level (log10) ([6]; 6700 nM): -0.004 ± 0.0028 | level (log10) ([6]; 20000 nM): -0.007 ± 0.0085 | level (log10) ([6]; 60000 nM): -0.008 ± 0.016 | level (log10) ([7]; 6700 nM): 0.0005 ± 0.00071 | level (log10) ([7]; 20000 nM): -0.001 ± 0.0028 | level (log10) ([7]; 60000 nM): 0.0085 ± 0.0078

CASM3C:Proliferation
level (log10) ([1]; 6700 nM): -0.012 ± 0.021 | level (log10) ([1]; 20000 nM): -0.044 ± 0.0057 | level (log10) ([1]; 60000 nM): 0 ± 0.031 | level (log10) [2]: -0.0005 ± 0.037 | level (log10) ([3]; 6700 nM): 0.006 ± 0.021 | level (log10) ([3]; 20000 nM): -0.05 ± 0.013 | level (log10) ([3]; 60000 nM): -0.045 ± 0.037 | level (log10) ([4]; 6700 nM): -0.01 ± 0.0099 | level (log10) ([4]; 20000 nM): -0.0345 ± 0.005 | level (log10) ([4]; 60000 nM): -0.0075 ± 0.057 | level (log10) ([5]; 6700 nM): 0.02 ± 0.037 | level (log10) ([5]; 20000 nM): 0.0125 ± 0.0078 | level (log10) ([5]; 60000 nM): -0.664 ± 0.24 | level (log10) ([6]; 6700 nM): -0.009 ± 0.031 | level (log10) ([6]; 20000 nM): 0.035 ± 0.064 | level (log10) ([6]; 60000 nM): -0.0075 ± 0.025 | level (log10) ([7]; 6700 nM): 0.0125 ± 0.018 | level (log10) ([7]; 20000 nM): -0.007 ± 0.045 | level (log10) ([7]; 60000 nM): -0.021 ± 0.0071

Reference: the supplement of paper PMC10331698
